Test results reported in ChEMBL document CHEMBL1121590, “Synthesis and enzymatic and inotropic activity of some new 8-substituted and 6,8-disubstituted derivatives of adenosine cyclic 3',5'-monophosphate” (J Med Chem, 1980).

Biological target: Phosphodiesterase 4 (Homo sapiens, UniProt P27815+Q08499+Q07343+Q08493)
Test: not given
Conditions: Oryctolagus cuniculus; Kidney
In the case of `O=P1(O)OC[C@H]2O[C@@H](n3c(Br)nc4c(NCc5ccccc5)ncnc43)[C@H](O)[C@@H]2O1`, the Hydrolysis is reported as under 0.05.
In the case of `COc1ccc(Sc2nc3c(N)ncnc3n2[C@@H]2O[C@@H]3COP(=O)(O)O[C@H]3[C@H]2O)cc1`, the Hydrolysis is reported as under 0.05.
For `CCCN(CCC)c1ncnc2c1nc(SCc1ccccc1)n2[C@@H]1O[C@@H]2COP(=O)(O)O[C@H]2[C@H]1O`, the Hydrolysis was under 0.05.
`Nc1ncnc2c1nc(SC1CCCCC1)n2[C@@H]1O[C@@H]2COP(=O)(O)O[C@H]2[C@H]1O` showed a Hydrolysis of under 0.05.
In the case of `CCN(CC)c1ncnc2c1nc(Sc1ccc(Cl)cc1)n2[C@@H]1O[C@@H]2COP(=O)(O)O[C@H]2[C@H]1O`, the Hydrolysis is reported as under 0.05.
`CCNc1ncnc2c1ncn2[C@@H]1O[C@@H]2COP(=O)(O)O[C@H]2[C@H]1O` showed a Hydrolysis of 0.2.
With `Nc1ncnc2c1nc(S)n2[C@@H]1O[C@@H]2COP(=O)(O)O[C@H]2[C@H]1O` the Hydrolysis was under 0.05.
Work on `CCN(CC)c1ncnc2c1nc(Cl)n2[C@@H]1O[C@@H]2COP(=O)(O)O[C@H]2[C@H]1O` yielded a Hydrolysis of 0.1.
`Nc1ncnc2c1nc(SCc1cccc([N+](=O)[O-])c1)n2[C@@H]1O[C@@H]2COP(=O)(O)O[C@H]2[C@H]1O` showed a Hydrolysis of under 0.05.
Compound `CCCCCCNc1ncnc2c1nc(SCc1ccccc1)n2[C@@H]1O[C@@H]2COP(=O)(O)O[C@H]2[C@H]1O` has a Hydrolysis of under 0.05.
`CSc1nc2c(N)ncnc2n1[C@@H]1O[C@@H]2COP(=O)(O)O[C@H]2[C@H]1O` showed a Hydrolysis of under 0.05.
In the case of `O=P1(O)OC[C@H]2O[C@@H](n3cnc4c(Cl)ncnc43)[C@H](O)[C@@H]2O1`, the Hydrolysis is reported as 1.2.
For `Nc1ncnc2c1nc(SCc1ccc(Cl)cc1)n2[C@@H]1O[C@@H]2COP(=O)(O)O[C@H]2[C@H]1O`, the Hydrolysis was under 0.05.
`CCCCN(C)c1ncnc2c1nc(SCc1ccccc1)n2[C@@H]1O[C@@H]2COP(=O)(O)O[C@H]2[C@H]1O` showed a Hydrolysis of under 0.05.
For `Nc1ncnc2c1nc(Sc1ccccc1)n2[C@@H]1O[C@@H]2COP(=O)(O)O[C@H]2[C@H]1O`, the Hydrolysis was under 0.05.
Compound `CCCSc1nc2c(N)ncnc2n1[C@@H]1O[C@@H]2COP(=O)(O)O[C@H]2[C@H]1O` has a Hydrolysis of under 0.05.
In the case of `Cc1ccc(CSc2nc3c(N)ncnc3n2[C@@H]2O[C@@H]3COP(=O)(O)O[C@H]3[C@H]2O)cc1`, the Hydrolysis is reported as under 0.05.
For `O=P1(O)OC[C@H]2O[C@@H](n3c(SCc4ccccc4)nc4c(NCc5ccccc5)ncnc43)[C@H](O)[C@@H]2O1`, the Hydrolysis was under 0.05.
In the case of `CSc1ncnc2c1ncn2[C@@H]1O[C@@H]2COP(=O)(O)O[C@H]2[C@H]1O`, the Hydrolysis is reported as 0.46.
`C=CCSc1nc2c(N)ncnc2n1[C@@H]1O[C@@H]2COP(=O)(O)O[C@H]2[C@H]1O` gave a Hydrolysis of under 0.05.
`CCN(CC)c1ncnc2c1ncn2[C@@H]1O[C@@H]2COP(=O)(O)O[C@H]2[C@H]1O` showed a Hydrolysis of 0.09.
`O=P1(O)OC[C@H]2O[C@@H](n3cnc4c(SCc5ccccc5)ncnc43)[C@H](O)[C@@H]2O1` showed a Hydrolysis of 0.54.
With `Nc1ncnc2c1nc(N)n2[C@@H]1O[C@@H]2COP(=O)(O)O[C@H]2[C@H]1O` the Hydrolysis was 0.8.
In the case of `CCCCNc1ncnc2c1ncn2[C@@H]1O[C@@H]2COP(=O)(O)O[C@H]2[C@H]1O`, the Hydrolysis is reported as 0.21.
With `CC(C)CNc1ncnc2c1nc(Sc1ccc(Cl)cc1)n2[C@@H]1O[C@@H]2COP(=O)(O)O[C@H]2[C@H]1O` the Hydrolysis was under 0.05.
Compound `Nc1ncnc2c1nc(SCc1cccnc1)n2[C@@H]1O[C@@H]2COP(=O)(O)O[C@H]2[C@H]1O` has a Hydrolysis of under 0.05.
With `CSc1ncnc2c1nc(SC)n2[C@@H]1O[C@@H]2COP(=O)(O)O[C@H]2[C@H]1O` the Hydrolysis was under 0.05.
For `CSc1nc2c(NCc3ccccc3)ncnc2n1[C@@H]1O[C@@H]2COP(=O)(O)O[C@H]2[C@H]1O`, the Hydrolysis was 0.19.
Work on `CC(C)CCNc1ncnc2c1nc(SCc1ccccc1)n2[C@@H]1O[C@@H]2COP(=O)(O)O[C@H]2[C@H]1O` yielded a Hydrolysis of under 0.05.
With `O=P1(O)OC[C@H]2O[C@@H](n3c(Sc4ccc(Cl)cc4)nc4c(N5CCCCC5)ncnc43)[C@H](O)[C@@H]2O1` the Hydrolysis was under 0.05.
With `CC(C)Sc1nc2c(N)ncnc2n1[C@@H]1O[C@@H]2COP(=O)(O)O[C@H]2[C@H]1O` the Hydrolysis was under 0.05.

Biological target: not listed separately
Test: Inhibition of cAMP phosphodiesterase preparation from rabbit lung at a substrate concentration of 0.14 uM
Conditions: not given
Work on `O=P1(O)OC[C@H]2O[C@@H](n3c(Br)nc4c(NCc5ccccc5)ncnc43)[C@H](O)[C@@H]2O1` yielded an I50 of 61 µM.
Work on `COc1ccc(Sc2nc3c(N)ncnc3n2[C@@H]2O[C@@H]3COP(=O)(O)O[C@H]3[C@H]2O)cc1` yielded an I50 of 48 µM.
For `Nc1ncnc2c1nc(SC1CCCCC1)n2[C@@H]1O[C@@H]2COP(=O)(O)O[C@H]2[C@H]1O`, the I50 was 13 µM.
With `CCN(CC)c1ncnc2c1nc(Sc1ccc(Cl)cc1)n2[C@@H]1O[C@@H]2COP(=O)(O)O[C@H]2[C@H]1O` the I50 was 3.5 µM.
With `CCNc1ncnc2c1ncn2[C@@H]1O[C@@H]2COP(=O)(O)O[C@H]2[C@H]1O` the I50 was 400 µM.
Compound `Nc1ncnc2c1nc(S)n2[C@@H]1O[C@@H]2COP(=O)(O)O[C@H]2[C@H]1O` has an I50 of 20 µM.
`CCN(CC)c1ncnc2c1nc(Cl)n2[C@@H]1O[C@@H]2COP(=O)(O)O[C@H]2[C@H]1O` showed an I50 of 18 µM.
With `Nc1ncnc2c1nc(SCc1cccc([N+](=O)[O-])c1)n2[C@@H]1O[C@@H]2COP(=O)(O)O[C@H]2[C@H]1O` the I50 was 25 µM.
With `CCCCCCNc1ncnc2c1nc(SCc1ccccc1)n2[C@@H]1O[C@@H]2COP(=O)(O)O[C@H]2[C@H]1O` the I50 was 30 µM.
Work on `CSc1nc2c(N)ncnc2n1[C@@H]1O[C@@H]2COP(=O)(O)O[C@H]2[C@H]1O` yielded an I50 of 69 µM.
In the case of `O=P1(O)OC[C@H]2O[C@@H](n3cnc4c(Cl)ncnc43)[C@H](O)[C@@H]2O1`, the I50 is reported as 20 µM.
`Nc1ncnc2c1nc(SCc1ccc(Cl)cc1)n2[C@@H]1O[C@@H]2COP(=O)(O)O[C@H]2[C@H]1O` showed an I50 of 11 µM.
In the case of `Nc1ncnc2c1nc(Sc1ccccc1)n2[C@@H]1O[C@@H]2COP(=O)(O)O[C@H]2[C@H]1O`, the I50 is reported as 57 µM.
Compound `CCCSc1nc2c(N)ncnc2n1[C@@H]1O[C@@H]2COP(=O)(O)O[C@H]2[C@H]1O` has an I50 of 37 µM.
For `Cc1ccc(CSc2nc3c(N)ncnc3n2[C@@H]2O[C@@H]3COP(=O)(O)O[C@H]3[C@H]2O)cc1`, the I50 was 13 µM.
With `O=P1(O)OC[C@H]2O[C@@H](n3c(SCc4ccccc4)nc4c(NCc5ccccc5)ncnc43)[C@H](O)[C@@H]2O1` the I50 was 29 µM.
In the case of `CSc1ncnc2c1ncn2[C@@H]1O[C@@H]2COP(=O)(O)O[C@H]2[C@H]1O`, the I50 is reported as 80 µM.
For `C=CCSc1nc2c(N)ncnc2n1[C@@H]1O[C@@H]2COP(=O)(O)O[C@H]2[C@H]1O`, the I50 was 29 µM.
`CCN(CC)c1ncnc2c1ncn2[C@@H]1O[C@@H]2COP(=O)(O)O[C@H]2[C@H]1O` showed an I50 of 67 µM.
Compound `O=P1(O)OC[C@H]2O[C@@H](n3cnc4c(SCc5ccccc5)ncnc43)[C@H](O)[C@@H]2O1` has an I50 of 25 µM.
With `Nc1ncnc2c1nc(N)n2[C@@H]1O[C@@H]2COP(=O)(O)O[C@H]2[C@H]1O` the I50 was 83 µM.
With `CCCCNc1ncnc2c1ncn2[C@@H]1O[C@@H]2COP(=O)(O)O[C@H]2[C@H]1O` the I50 was 33 µM.
`CC(C)CNc1ncnc2c1nc(Sc1ccc(Cl)cc1)n2[C@@H]1O[C@@H]2COP(=O)(O)O[C@H]2[C@H]1O` showed an I50 of 1.2 µM.
Compound `Nc1ncnc2c1nc(SCc1cccnc1)n2[C@@H]1O[C@@H]2COP(=O)(O)O[C@H]2[C@H]1O` has an I50 of 100 µM.
Compound `CSc1ncnc2c1nc(SC)n2[C@@H]1O[C@@H]2COP(=O)(O)O[C@H]2[C@H]1O` has an I50 of 50 µM.
`CSc1nc2c(NCc3ccccc3)ncnc2n1[C@@H]1O[C@@H]2COP(=O)(O)O[C@H]2[C@H]1O` showed an I50 of 17 µM.
`CC(C)CCNc1ncnc2c1nc(SCc1ccccc1)n2[C@@H]1O[C@@H]2COP(=O)(O)O[C@H]2[C@H]1O` gave an I50 of 2 µM.
With `O=P1(O)OC[C@H]2O[C@@H](n3c(Sc4ccc(Cl)cc4)nc4c(N5CCCCC5)ncnc43)[C@H](O)[C@@H]2O1` the I50 was 10 µM.
`CC(C)Sc1nc2c(N)ncnc2n1[C@@H]1O[C@@H]2COP(=O)(O)O[C@H]2[C@H]1O` gave an I50 of 56 µM.
